Measurements taken from patent US7745569B2, “Amyloid specific binding peptides and detecting abeta peptide” (The Regents of the University of California, priority 2003, dated 2010).
“Also recorded” adds a separate entry of the source. Positions of bridges follow the written chain, without caps; N, C: chain ends. Residues, ends and D or L forms follow the SMILES beside them. No end group written: not given here. *: point of attachment. Biotin = O=C1N[C@H]2[C@H](CS[C@H]2CCCCC(=O)*)N1

Assays:
[1] = mouse, in vivo, iv
Protocol: (§1) Peptides were injected in sterile Tris-buffered saline, pH 7.4, with 1 mM CaCl2 and 1 mM MgCl2. 4 animals were injected for each condition. Animals were then sacrificed after one minute or two minutes. Immediately upon sacrifice, blood and organs were harvested. To quantitate peptide uptake, brain, liver, and kidney were washed and the tissues lysed by homogenization in doubly distilled water. Organs and blood were centrifuged at 13000 g to collect lysate. Organ lysates or serum were then immobilized on ELISA plates that had been coated with nitrocellulose. Some tissue and serum samples were spiked with known amounts of purified peptide to verify levels of peptide immobilization in different sample types. […] The levels of biotinylated peptide immobilized on ELISA plates was quantitated by binding of alkaline phosphatase-conjugated streptavidin. Levels of streptavidin binding were determined by development with para-nitrophenylphosphate, as in Kang et al. (Neurobiology of Disease 14:146-156 (2003)).

[2] = biological target: T1, amyloid form of Aβ1-40 peptide (Homo sapiens, UniProt P05067, R676K/Y681T); assay: Staining of Aβ1-40 amyloid by phage clones; type: binding; conditions: 10^11 PFU/ml phage; anti-M13 antibody/alkaline phosphatase detection
T1 construct: purchased Bachem (Torrence, Calif.)
Protocol: Staining and blotting with phage: 10^11 PFU (plaque forming units)/ml of various phage clones were incubated with the amyloid form of Aβ1-40 peptide. Aβ amyloid was made by incubating peptide in TBS (pH 7.4) for 7 days on Falcon 24-well tissue culture wells. After washing, bound phage were visualized by incubation with biotinylated anti-M13 antibody and alkaline phosphatase-conjugated streptavidin, followed by incubation for equivalent times in 5-bromo-4-chloro-3-indolyl phosphate (BCIP) and nitroblue tetrazolium (NBT).

Aβ1-40 amyloid = biological target: T2, Aβ1-40 amyloid (Homo sapiens, UniProt P05067, R676K/Y681T); type: binding; conditions: immobilized Aβ1-40 amyloid, ELISA
T2 construct: purchased Bachem (Torrence, Calif.)

[3] = test system: amyloid plaques in Alzheimer's disease brain; assay: Staining of human brain sections (AD and normal) with Thio-Aβ, Thio and synthetic peptide; type: binding
Protocol: Staining of human brain with recombinant Thio-Aβ-protein and synthetic peptides: Normal and AD brain samples were obtained from the UCSD Alzheimer's Research Center (La Jolla, Calif.). Sections from a non-AD amyloidosis patient were obtained from the Department of Pathology (UCSD). Paraffin-embedded samples of cortex or other tissues were sectioned at 10 μm and mounted on glass slides. […] Binding was determined by subsequent staining with anti-Thio antibody and anti-mouse IgG coupled to alkaline phosphatase as above. After washing, staining was developed using 5-bromo-4-chloro-3-indolyl-phosphate and nitroblue tetrazolium for identical periods of time. All washes and incubations were done in phage buffer. The existence of amyloid plaques was confirmed by binding of anti-Aβ monoclonal antibody (2066) to sections from the same brain samples. No significant staining was ever observed with secondary antibody alone. Background staining was allowed to develop to the point where cells in the section were evident.
For staining with synthetic peptide, tissue sections from AD and non-AD brain, as well as from brain, kidney, small bowel, large bowel, and prostate from a non-AD patient with amyloidosis, were cut and prepared as above. Biotinylated peptide ([…]) (SEQ ID NO:4) was added in phage buffer for 1 hour at concentrations ranging from 0.1-10 μM. Sections were washed with phage buffer, incubated with streptavidin coupled to alkaline phosphatase, washed and developed as above. […] Congo Red or hematoxylin and eosin staining was done to confirm the presence of amyloid in amyloidosis sections.

[4] = Uptake of peptide into brain, liver and kidney after tail vein injection; conditions: mouse, i.v. tail vein, 100 μL of 1 mg/mL; percentage relative to peptide in serum; SD, n=4
Protocol: as §1

With `CC(C)C[C@H](NC(=O)[C@H](CCCNC(=N)N)NC(=O)[C@H](Cc1c[nH]c2ccccc12)NC(=O)[C@H](CCCNC(=N)N)NC(=O)CNC(=O)CNC(=O)[C@H](CCCCN)NC(=O)CNC(=O)[C@H](Cc1c[nH]c2ccccc12)NC(=O)[C@H](CC(=O)O)NC(=O)CCCC[C@@H]1SC[C@@H]2NC(=O)N[C@@H]21)C(=O)N[C@@H](Cc1c[nH]c2ccccc12)C(=O)N1CCC[C@H]1C(=O)NCC(=O)N[C@@H](C)C(=O)N[C@@H](CO)C(=O)NCC(=O)N[C@@H](CCCCN)C(=O)N[C@H](C(=O)N[C@@H](CCC(=O)O)C(=O)N[C@@H](C)C(=O)O)[C@@H](C)O` (Biotin-DWGKGGRWRLWPGASGKTEA-OH) the “crossing of the blood-brain barrier (in words)” value [1] was “did not cross the blood-brain barrier”.

For DWGKGGRWRLWPGASGKTEA, the “staining of Aβ1-40 amyloid by phage clone” value [2] was “identified both small and large (0.5-50 μm) accumulations of Aβ1-40 amyloid; also recorded: stained Aβ1-40 amyloid”.

For “Thio-Aβ: Recombinant fusion protein of thioredoxin with the cysteine-flanked DWGKGGRWRLWPGASGKTEA (SEQ ID NO:2) peptide (PAECDWGKGGRWRLWPGASGKTEACGPPY; cysteine pairing not given here; also: recombinant fusion with thioredoxin, carrier left off)”, the “concentration at which binding to Aβ1-40 amyloid is saturating” value (Aβ1-40 amyloid) was 200 nM, the “lowest concentration giving positive staining of amyloid plaques” value ([3]; AD brain sections) was 100 nM and the “staining of neurofibrillary tangles” value ([3]; AD brain sections) was “not evident”. The “staining of amyloid plaques in AD brain” value ([3]; paraffin sections of AD brain) was “heavily stained amyloid plaques from AD brains; also recorded: bound specifically to amyloid plaques in AD brains; also recorded: confirmed in brains from multiple AD subjects” and the “staining of normal brain” value ([3]; paraffin sections of normal (non-AD) brain) was “did not stain any structures in normal brain tissue; also recorded: did not bind to normal brain samples; also recorded: negative in multiple non-AD controls”.

With PGRSPFTGKKLFNQEFSQDQ the “staining of Aβ1-40 amyloid by phage clone” value [2] was “stained Aβ1-40 amyloid aggregates more poorly, but still stained well above background levels; also recorded: stained Aβ1-40 amyloid less well”.

With `CC(C)C[C@@H]1NC(=O)[C@H](CCCNC(=N)N)NC(=O)[C@H](Cc2c[nH]c3ccccc23)NC(=O)[C@H](CCCNC(=N)N)NC(=O)CNC(=O)CNC(=O)[C@H](CCCCN)NC(=O)CNC(=O)[C@H](Cc2c[nH]c3ccccc23)NC(=O)[C@H](CC(=O)O)NC(=O)[C@@H](NC(=O)[C@H](CCC(=O)O)NC(=O)[C@H](C)NC(=O)CCCC[C@@H]2SC[C@@H]3NC(=O)N[C@@H]32)CSSC[C@@H](C(=O)NCC(=O)N2CCC[C@H]2C(=O)O)NC(=O)[C@H](C)NC(=O)[C@H](CCC(=O)O)NC(=O)[C@H]([C@@H](C)O)NC(=O)[C@H](CCCCN)NC(=O)CNC(=O)[C@H](CO)NC(=O)[C@H](C)NC(=O)CNC(=O)[C@@H]2CCCN2C(=O)[C@H](Cc2c[nH]c3ccccc23)NC1=O` (Biotin-AECDWGKGGRWRLWPGASGKTEACGP-OH; disulfide 3-24 (inferred); C-terminus assumed) the “% uptake/min, Kidney” value [4] was 0.16 ± 0.02% uptake/min.
